Series [1] addresses T1, human GluN1/GluN2B NMDA receptors (Homo sapiens, UniProt Q05586+Q13224).
T1 construct: expressed in transfected cells
The series can be described thus: Calcium flux (FLIPR) assay on cloned human GluN1/GluN2B ion channels expressed in mammalian cells, standard assay. The format is cell-based. Conditions: glutamate ~EC40, 10 μM glycine, stable cell line with Tet-On induced expression. As to the method: (§1) NMDA receptors are ion channels that are highly permeable to Ca^2+ ions, rendering it possible to monitor NMDA receptor function using cell-based calcium flux assay. In this assay, co-agonists glutamate and glycine are added to cells heterologously expressing human GluN1/GluN2B NMDA receptors to initiate cellular Ca^2+ influx. The time course of the changes in intracellular calcium is measured using a fluorescent dye and a FLIPR (Fluorometric Imaging Plate Reader) device.
(§2) Twenty four hours before measurements, the expression of the NMDA receptors in the stable cell line is induced with Tet-On inducible system in the presence of a non-selective NMDA receptor blocker. On the day of the experiment, cell culture media is carefully washed and the cells are loaded with Calcium 5 Dye Kit (Molecular Devices) in dye loading buffer containing 137 mM NaCl, 4 mM KCl, 2 mM CaCl2, 0.5 mM MgCl2 (standard assay) or 1.5 mM MgCl2 (HTS assay), 10 mM HEPES and 5 mM D-glucose; pH 7.4. After 1 h incubation at the room temperature, the dye is washed away with the assay buffer (137 mM NaCl (standard assay) or 150 mM (HTS assay), 4 mM KCl (standard assay) or 3 mM (HTS assay), 2 mM CaCl2, 0.01 mM EDTA, 10 mM HEPES and 5 mM D-glucose; pH 7.4) In the FLIPR TETRA reader, various concentrations of the test compounds are added to the cells for 5 min while fluorescence is monitored to detect potential agonist activity. Next, co-agonists, glutamate and glycine are added for another 5 minutes. The concentration of glutamate corresponding to ˜EC40 (standard assay) or EC40 (HTS assay) is used to maximize the assay's signal window and ability to detect NMDA receptor antagonists and negative allosteric modulators. A saturating concentration (10 μM) of glycine is also present in the assay. A non-selective NMDA receptor antagonist, (+)MK-801 is used as a positive control for antagonist activity. The fluorescent signal in the presence of test compounds is quantified and normalized to the signal defined by the appropriate control wells.
On the technique in general: Calcium flux is commonly read through the fluorescence of an indicator in the cells.

Series [2] is described as follows: Liver microsomal stability assay (extraction ratio). The note with it: test compound 1 μM; 0.5 mg/mL liver microsomes, 1 mM NADPH, 37° C.; species not given (method: mouse, rat, and human). The format is in vitro ADME. The procedure: Microsomal stability studies (see, Chrovian et al, “1H-Pyrrolo[3,2-b]pyridine GluN2B-Selective Negative Allosteric Modulators”. ACS Med Chem Lett. 2019 Jan. 10; 10(3):261-266) were conducted on a Biomek® FX Robotic Liquid Handling Workstation (Beckman Coulter, Brea, Calif.), which consists of a 96-channel pipette head, a 12-position workstation deck, and a plate incubator. Test compounds (1 μM) were spiked in a reaction mix consisting of 100 mM potassium phosphate buffer (pH 7.4), 3 mM MgCl2, and 0.5 mg/mL liver microsomes from mouse, rat, and human (BD Gentest). The reaction was brought to 37° C. and initiated by adding NADPH to a final concentration of 1 mM. After mixing on the platedeck, 50 μL aliquots were excised from the reaction plate at 0, 5, 10, 20, 40, and 60 min and quenched with four volumes of acetonitrile spiked with […] of the internal standard phenytoin. Quenched plates were centrifuged at 5700 rpm for 10 min at 4° C., and supernatant was diluted 1:3 in water before LC/MS/MS analysis. The compound half-lives were derived from plots of the ln of percent remaining compound over time to determine the intrinsic clearance. The predicted hepatic clearance was derived from the intrinsic clearance value using equations from the well-stirred model (Current Drug Metabolism, 2008, 9, 940-951), where no correction was made plasma protein binding and the blood to plasma concentration ratio was assumed to be one. The extraction ratio (ER) was calculated by dividing the predicted hepatic clearance by species blood flow (Q), where Q is 90, 55, and 21.7 mL/min/kg for mouse, rat and human, respectively.

The target in series [3] is T2, human GluN1/GluN2B NMDA receptors (Homo sapiens, UniProt Q13224).
T2 construct: expressed in transfected cells
T2 sequence (Q13224 27-1484, other chains not shown): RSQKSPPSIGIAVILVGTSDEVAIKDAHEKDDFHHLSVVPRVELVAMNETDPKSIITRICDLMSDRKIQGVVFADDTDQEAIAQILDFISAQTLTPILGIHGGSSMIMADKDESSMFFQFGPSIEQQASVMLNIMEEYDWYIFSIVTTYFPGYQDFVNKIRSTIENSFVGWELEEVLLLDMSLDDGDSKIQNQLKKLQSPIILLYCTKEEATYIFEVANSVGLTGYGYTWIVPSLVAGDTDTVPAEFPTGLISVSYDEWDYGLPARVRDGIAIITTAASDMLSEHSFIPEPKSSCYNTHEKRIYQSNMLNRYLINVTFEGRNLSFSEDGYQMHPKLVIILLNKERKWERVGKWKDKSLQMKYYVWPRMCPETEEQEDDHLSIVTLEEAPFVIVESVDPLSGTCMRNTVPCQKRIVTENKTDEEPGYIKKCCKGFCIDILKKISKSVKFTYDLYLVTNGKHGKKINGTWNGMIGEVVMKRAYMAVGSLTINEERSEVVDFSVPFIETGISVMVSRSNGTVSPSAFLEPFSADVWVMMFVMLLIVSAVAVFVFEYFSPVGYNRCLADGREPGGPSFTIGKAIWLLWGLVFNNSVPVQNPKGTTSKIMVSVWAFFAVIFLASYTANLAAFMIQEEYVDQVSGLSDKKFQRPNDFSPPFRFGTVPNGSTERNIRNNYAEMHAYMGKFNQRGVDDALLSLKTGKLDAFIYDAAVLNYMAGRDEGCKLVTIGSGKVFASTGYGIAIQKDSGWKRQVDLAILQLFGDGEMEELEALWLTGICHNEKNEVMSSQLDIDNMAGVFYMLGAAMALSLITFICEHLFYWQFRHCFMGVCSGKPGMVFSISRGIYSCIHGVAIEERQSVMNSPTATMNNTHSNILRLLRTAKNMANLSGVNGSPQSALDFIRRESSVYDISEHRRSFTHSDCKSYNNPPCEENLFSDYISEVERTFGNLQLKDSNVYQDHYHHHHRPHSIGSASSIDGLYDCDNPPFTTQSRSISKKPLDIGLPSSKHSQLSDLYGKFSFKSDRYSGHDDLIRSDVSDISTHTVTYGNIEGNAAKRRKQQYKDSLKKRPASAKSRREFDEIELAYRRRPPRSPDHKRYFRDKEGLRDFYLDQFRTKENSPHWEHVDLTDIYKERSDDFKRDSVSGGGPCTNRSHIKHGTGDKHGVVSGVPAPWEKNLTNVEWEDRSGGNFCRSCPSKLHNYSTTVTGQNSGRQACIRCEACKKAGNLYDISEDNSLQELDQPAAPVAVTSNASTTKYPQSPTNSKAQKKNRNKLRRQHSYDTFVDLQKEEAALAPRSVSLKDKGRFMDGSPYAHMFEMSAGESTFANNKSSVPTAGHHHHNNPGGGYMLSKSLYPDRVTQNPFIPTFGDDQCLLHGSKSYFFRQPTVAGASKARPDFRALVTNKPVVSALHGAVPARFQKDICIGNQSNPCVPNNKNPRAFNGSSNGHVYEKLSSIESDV
Kind of series: Calcium flux (FLIPR) assay on cloned human GluN1/GluN2B ion channels expressed in mammalian cells, standard assay. Format: cell-based. The note with it: glutamate ~EC40, 10 μM glycine, stable cell line with Tet-On induced expression. The procedure: as §1, §2

Bounds are passed on as bounds.

T1 sequence (Q13224 27-1484, other chains not shown): as above

As to `CNC(=O)C1CN(Cc2cncc(-c3ccc(F)c(C(F)F)c3)n2)C(=O)O1` (racemic) [Example 59, (R/S)-3-[[6-[3-(Difluoromethyl)-4-fluoro-phenyl]pyrazin-2-yl]methyl]-N-methyl-2-oxo-oxazolidine-5-carboxamide], in series [1], the IC50 – broadly, the concentration needed to halve the response being measured – is more than 3000 nM. The “Extraction Ratio @ 1 μM” value in series [2] is listed as 0.18.

Consider `O=C1OC2(CC2)CN1Cc1cncc(-c2ccc(F)c(C(F)F)c2)n1` [Example 3, 5-[[6-[3-(Difluoromethyl)-4-fluoro-phenyl]pyrazin-2-yl]methyl]-7-oxa-5-azaspiro[2.4]heptan-6-one], for which the IC50 in series [3] was 13 nM. Moreover, the “Extraction Ratio @ 1 μM” value in series [2] was found to be 0.05.

`C[C@H]1COC(=O)N1Cc1cncc(-c2ccc(F)c(C(F)F)c2)n1` [Example 8, (4S)-3-[[6-[3-(Difluoromethyl)-4-fluoro-phenyl]pyrazin-2-yl]methyl]-4-methyl-oxazolidin-2-one]: the IC50 in series [3] stood at 872 nM. Besides, the “Extraction Ratio @ 1 μM” value in series [2] was 0.06.

With `Cc1ncc(-c2ccc(F)c(C(F)F)c2)nc1CN1C(=O)OC[C@H]1C` [Example 11, (4R)-3-[[6-[3-(Difluoromethyl)-4-fluoro-phenyl]-3-methyl-pyrazin-2-yl]methyl]-4-methyl-oxazolidin-2-one], the IC50 in series [3] was 192 nM. The “Extraction Ratio @ 1 μM” value in series [2] is 0.18.

As for `Cc1ncc(-c2ccc(F)c(C(F)F)c2)nc1CN1CCCOC1=O` [Example 15, 3-[[6-[3-(Difluoromethyl)-4-fluoro-phenyl]-3-methyl-pyrazin-2-yl]methyl]-1,3-oxazinan-2-one], the IC50 in series [3] was 65 nM. In addition, in series [2], the “Extraction Ratio @ 1 μM” value stood at 0.06.
